In patent US20230091561A1, “METHODS OF TREATING PRIMARY PROGRESSIVE MULTIPLE SCLEROSIS USING AN INHIBITOR OF BRUTON'S TYROSINE KINASE” (Genentech, Inc., priority 2020, published 2023):
Read-outs that look alike come from different tables or passages of the source.

How the values were obtained:
CDK8/cycC = molecular target: T1, CDK8/cycC (Homo sapiens, UniProt P49336); test: Kinase selectivity IC50, CDK8/cycC; type: biochemical; conditions: unpublished
T1 construct: purchased

CK1e1 = CK1e1 (Homo sapiens, UniProt P49674); test: Kinase selectivity IC50, CK1e1
MLK2 = MLK2 (Homo sapiens, UniProt Q02779); test: Kinase selectivity IC50, MLK2
Fgr [1] = molecular target: T2, Fgr (Homo sapiens, UniProt P09769); test: Kinase selectivity IC50, Fgr
FGFR1 = FGFR1 (Homo sapiens, UniProt P11362); test: Kinase selectivity IC50, FGFR1
RET = RET (Homo sapiens, UniProt P07949); test: Kinase selectivity IC50, RET
FLT3 = FLT3 (Homo sapiens, UniProt P36888); test: Kinase selectivity IC50, FLT3
MKNK2 = MKNK2 (Homo sapiens, UniProt Q9HBH9); test: Kinase selectivity IC50, MKNK2
CSK = CSK (Homo sapiens, UniProt P41240); test: Kinase selectivity IC50, CSK
BRK = BRK (Homo sapiens, UniProt Q13882); test: Kinase selectivity IC50, BRK
RIPK2 = RIPK2 (Homo sapiens, UniProt O43353); test: Kinase selectivity IC50, RIPK2
LCK = LCK (Homo sapiens, UniProt P06239); test: Kinase selectivity IC50, LCK
Fgr [2] = molecular target: T2, Fgr; design: purchased; conditions: footnote a (Crawford et al.); cited from earlier work
Src [3] = molecular target: T3, Src (Homo sapiens, UniProt P12931); design: purchased; conditions: footnote a (Crawford et al.); cited from earlier work
LYN = LYN (Homo sapiens, UniProt P07948); test: Kinase selectivity IC50, LYN
BLK = BLK (Homo sapiens, UniProt P51451); test: Kinase selectivity IC50, BLK
BMX [4] = molecular target: T4, BMX (Homo sapiens, UniProt P51813); test: Kinase selectivity IC50, BMX
YES = YES (Homo sapiens, UniProt P07947); test: Kinase selectivity IC50, YES
HCK = HCK (Homo sapiens, UniProt P08631); test: Kinase selectivity IC50, HCK
Src [5] = molecular target: T3, Src; test: Kinase selectivity IC50, Src
TXK = TXK (Homo sapiens, UniProt P42681); test: Kinase selectivity IC50, TXK
FRK = FRK (Homo sapiens, UniProt P42685); test: Kinase selectivity IC50, FRK
SRM = SRM (Homo sapiens, UniProt Q9H3Y6); test: Kinase selectivity IC50, SRM
ERBB2 = ERBB2 (Homo sapiens, UniProt P04626); test: Kinase selectivity IC50, ERBB2
TNK2 = TNK2 (Homo sapiens, UniProt Q07912); test: Kinase selectivity IC50, TNK2
BMX [6] = molecular target: T4, BMX; test: Covalent reaction (kinact/Ki), real-time competition with a fluorescent active site ligand, BMX

T2 sequence (P09769 whole entry): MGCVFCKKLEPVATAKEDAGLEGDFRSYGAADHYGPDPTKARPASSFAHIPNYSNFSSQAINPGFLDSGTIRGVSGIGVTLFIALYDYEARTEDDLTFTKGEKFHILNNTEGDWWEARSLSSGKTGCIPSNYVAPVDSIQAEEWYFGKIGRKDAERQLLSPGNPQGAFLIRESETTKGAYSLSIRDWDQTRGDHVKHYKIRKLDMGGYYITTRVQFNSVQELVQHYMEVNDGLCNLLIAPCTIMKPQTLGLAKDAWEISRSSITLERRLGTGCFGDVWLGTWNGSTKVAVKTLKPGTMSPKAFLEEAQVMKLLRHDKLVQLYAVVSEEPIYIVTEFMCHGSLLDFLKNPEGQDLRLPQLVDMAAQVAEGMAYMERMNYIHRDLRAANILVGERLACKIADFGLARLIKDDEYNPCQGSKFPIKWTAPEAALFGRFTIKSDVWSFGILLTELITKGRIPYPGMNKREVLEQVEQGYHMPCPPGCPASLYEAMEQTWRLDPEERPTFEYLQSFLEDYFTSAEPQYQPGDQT
Sequence of RIPK2 (O43353 whole entry): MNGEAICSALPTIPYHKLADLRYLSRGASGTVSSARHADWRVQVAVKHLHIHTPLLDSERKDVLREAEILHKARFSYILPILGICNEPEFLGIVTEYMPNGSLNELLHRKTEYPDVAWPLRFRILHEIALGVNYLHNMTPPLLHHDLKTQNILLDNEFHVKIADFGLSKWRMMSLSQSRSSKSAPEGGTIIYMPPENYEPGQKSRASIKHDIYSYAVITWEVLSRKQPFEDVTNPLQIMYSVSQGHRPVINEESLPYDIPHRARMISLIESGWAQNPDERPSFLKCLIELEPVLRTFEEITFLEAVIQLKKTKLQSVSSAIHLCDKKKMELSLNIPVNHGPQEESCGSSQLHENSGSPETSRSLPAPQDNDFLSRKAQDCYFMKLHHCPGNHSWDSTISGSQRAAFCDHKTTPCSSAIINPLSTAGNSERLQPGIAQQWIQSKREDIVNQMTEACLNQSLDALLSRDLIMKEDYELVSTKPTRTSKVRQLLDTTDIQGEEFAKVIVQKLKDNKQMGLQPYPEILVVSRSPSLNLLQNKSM
T3 sequence (P12931 whole entry): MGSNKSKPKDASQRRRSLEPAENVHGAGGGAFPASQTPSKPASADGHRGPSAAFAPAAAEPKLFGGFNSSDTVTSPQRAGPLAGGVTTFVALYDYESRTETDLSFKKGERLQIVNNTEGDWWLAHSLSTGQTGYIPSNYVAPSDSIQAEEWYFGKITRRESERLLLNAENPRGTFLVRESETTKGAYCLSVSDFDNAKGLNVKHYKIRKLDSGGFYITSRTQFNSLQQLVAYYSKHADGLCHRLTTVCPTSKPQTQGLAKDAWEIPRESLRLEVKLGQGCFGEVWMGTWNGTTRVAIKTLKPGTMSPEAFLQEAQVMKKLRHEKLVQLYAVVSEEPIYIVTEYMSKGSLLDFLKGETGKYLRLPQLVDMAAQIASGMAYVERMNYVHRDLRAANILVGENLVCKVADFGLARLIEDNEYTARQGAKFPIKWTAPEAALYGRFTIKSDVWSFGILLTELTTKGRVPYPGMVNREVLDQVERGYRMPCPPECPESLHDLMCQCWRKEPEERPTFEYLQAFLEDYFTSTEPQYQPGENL
T4 sequence (P51813 whole entry): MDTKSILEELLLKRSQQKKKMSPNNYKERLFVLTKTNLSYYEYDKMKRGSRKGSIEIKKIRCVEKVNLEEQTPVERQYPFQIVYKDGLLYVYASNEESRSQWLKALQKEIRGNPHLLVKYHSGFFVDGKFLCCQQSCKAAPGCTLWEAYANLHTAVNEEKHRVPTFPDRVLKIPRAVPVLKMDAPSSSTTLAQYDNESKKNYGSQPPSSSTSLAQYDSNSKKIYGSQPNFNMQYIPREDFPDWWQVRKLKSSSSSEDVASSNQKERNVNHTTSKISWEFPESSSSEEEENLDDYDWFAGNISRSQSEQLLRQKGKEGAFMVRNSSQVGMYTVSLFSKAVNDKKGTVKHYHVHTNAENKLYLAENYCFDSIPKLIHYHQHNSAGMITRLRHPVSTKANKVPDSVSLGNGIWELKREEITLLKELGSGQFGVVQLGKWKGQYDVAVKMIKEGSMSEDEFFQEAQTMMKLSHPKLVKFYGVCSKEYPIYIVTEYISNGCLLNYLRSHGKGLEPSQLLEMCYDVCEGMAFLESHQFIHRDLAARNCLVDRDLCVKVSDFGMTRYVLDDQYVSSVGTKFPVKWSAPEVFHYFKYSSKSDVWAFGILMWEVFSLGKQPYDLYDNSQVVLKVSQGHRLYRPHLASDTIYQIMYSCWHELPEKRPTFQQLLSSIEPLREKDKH
Sequence of CSK (P41240 whole entry): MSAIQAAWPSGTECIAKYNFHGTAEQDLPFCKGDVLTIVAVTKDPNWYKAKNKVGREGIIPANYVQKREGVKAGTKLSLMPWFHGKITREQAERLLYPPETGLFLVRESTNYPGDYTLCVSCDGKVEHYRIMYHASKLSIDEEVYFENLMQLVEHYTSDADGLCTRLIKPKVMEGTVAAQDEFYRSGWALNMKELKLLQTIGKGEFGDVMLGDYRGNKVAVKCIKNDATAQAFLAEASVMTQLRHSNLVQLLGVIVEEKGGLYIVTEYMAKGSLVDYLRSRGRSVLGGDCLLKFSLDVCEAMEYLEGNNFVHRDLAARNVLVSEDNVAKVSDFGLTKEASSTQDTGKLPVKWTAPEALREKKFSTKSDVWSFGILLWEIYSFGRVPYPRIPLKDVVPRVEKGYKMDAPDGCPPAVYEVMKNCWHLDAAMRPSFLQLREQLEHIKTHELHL
Sequence of BRK (Q13882 whole entry): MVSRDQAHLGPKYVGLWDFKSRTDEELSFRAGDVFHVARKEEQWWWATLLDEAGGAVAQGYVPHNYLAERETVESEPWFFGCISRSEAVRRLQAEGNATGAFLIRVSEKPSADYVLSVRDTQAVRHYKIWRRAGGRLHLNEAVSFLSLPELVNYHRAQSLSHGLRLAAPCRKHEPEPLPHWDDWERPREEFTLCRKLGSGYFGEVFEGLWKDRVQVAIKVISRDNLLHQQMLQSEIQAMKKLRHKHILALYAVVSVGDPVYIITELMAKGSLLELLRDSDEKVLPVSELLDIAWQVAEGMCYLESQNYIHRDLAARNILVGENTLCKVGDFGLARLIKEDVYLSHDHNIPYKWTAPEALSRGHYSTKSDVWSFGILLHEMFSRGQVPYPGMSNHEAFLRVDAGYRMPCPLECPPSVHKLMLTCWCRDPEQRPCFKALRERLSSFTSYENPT
Sequence of TXK (P42681 whole entry): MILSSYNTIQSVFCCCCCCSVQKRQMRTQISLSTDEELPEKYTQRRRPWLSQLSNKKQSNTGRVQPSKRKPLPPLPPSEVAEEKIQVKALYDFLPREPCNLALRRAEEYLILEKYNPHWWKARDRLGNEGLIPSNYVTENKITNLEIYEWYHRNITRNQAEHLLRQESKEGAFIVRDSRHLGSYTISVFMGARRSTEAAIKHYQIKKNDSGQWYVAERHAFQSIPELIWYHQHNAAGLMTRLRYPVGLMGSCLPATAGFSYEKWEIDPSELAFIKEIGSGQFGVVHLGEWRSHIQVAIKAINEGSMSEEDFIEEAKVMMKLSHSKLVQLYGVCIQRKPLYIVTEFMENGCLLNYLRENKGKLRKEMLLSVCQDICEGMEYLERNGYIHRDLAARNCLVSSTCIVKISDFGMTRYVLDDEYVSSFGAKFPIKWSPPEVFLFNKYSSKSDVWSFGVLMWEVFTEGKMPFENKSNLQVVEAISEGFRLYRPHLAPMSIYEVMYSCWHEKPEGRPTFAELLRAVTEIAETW
Sequence of HCK (P08631 whole entry): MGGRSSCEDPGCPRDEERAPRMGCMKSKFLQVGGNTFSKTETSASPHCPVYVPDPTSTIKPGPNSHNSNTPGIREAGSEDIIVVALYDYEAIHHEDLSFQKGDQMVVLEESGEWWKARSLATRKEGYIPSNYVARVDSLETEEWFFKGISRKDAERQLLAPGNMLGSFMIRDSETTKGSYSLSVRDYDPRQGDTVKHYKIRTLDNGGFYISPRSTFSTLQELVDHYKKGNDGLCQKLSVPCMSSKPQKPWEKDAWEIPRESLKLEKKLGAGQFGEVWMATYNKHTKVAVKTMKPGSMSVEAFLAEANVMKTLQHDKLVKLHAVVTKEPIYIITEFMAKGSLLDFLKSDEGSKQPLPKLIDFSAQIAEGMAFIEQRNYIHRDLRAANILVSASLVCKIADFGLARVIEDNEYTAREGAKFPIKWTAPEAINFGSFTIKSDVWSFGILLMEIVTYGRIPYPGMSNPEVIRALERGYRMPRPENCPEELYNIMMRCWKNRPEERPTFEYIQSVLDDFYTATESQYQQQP
Sequence of CK1e1 (P49674 whole entry): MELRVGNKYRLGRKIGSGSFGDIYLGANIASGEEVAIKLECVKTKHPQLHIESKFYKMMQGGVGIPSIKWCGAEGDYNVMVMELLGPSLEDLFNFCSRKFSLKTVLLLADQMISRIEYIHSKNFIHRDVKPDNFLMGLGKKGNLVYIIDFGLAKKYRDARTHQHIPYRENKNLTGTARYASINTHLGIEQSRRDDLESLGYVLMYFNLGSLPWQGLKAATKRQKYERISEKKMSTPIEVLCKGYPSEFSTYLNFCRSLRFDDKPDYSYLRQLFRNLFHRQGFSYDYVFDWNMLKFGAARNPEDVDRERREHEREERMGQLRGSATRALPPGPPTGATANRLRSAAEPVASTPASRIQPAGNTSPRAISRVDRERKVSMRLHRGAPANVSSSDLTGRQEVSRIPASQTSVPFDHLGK

C=CC(=O)N1CCC(CNc2ncnc(N)c2-c2ccc(Oc3ccccc3)cc2)CC1 [Evobrutinib]
IC50 (CDK8/cycC): 3.5 µM
IC50 (CK1e1): 1.45 µM
IC50 (MLK2): 3.98 µM
IC50 (Fgr [1]): 2.33 µM
IC50 (FGFR1): 4.15 µM
IC50 (RET): 8.63 µM
IC50 (FLT3): 2.25 µM
IC50 (MKNK2): 4.13 µM
IC50 (CSK): 7.82 µM
IC50 (BRK): 6.02 µM
IC50 (RIPK2): 4.33 µM
IC50 (LCK): 3.8 µM

C[C@H]1CN(C2COC2)CCN1c1ccc(Nc2cc(-c3ccnc(N4CCn5c(cc6c5CC(C)(C)C6)C4=O)c3CO)cn(C)c2=O)nc1 [Fenebrutinib]
IC50 (Fgr [2]): 0.387 µM
IC50 (Src [3]): 0.302 µM

C=CC(=O)N1CCC[C@@H](n2c(=O)n(-c3ccc(Oc4ccccc4)cc3)c3c(N)nccc32)C1 [Tolebrutinib]
IC50 (LYN): 0.194 µM
IC50 (Fgr [1]): 0.033 µM
IC50 (BLK): 0.003 µM
IC50 (BMX [4]): 0.0025 µM
IC50 (YES): 0.016 µM
IC50 (HCK): 0.091 µM
IC50 (Src [5]): 0.054 µM
IC50 (TXK): 0.0039 µM
IC50 (CSK): 0.087 µM
IC50 (FRK): 0.231 µM
IC50 (BRK): 0.044 µM
IC50 (SRM): 0.116 µM
IC50 (RIPK2): 0.125 µM
IC50 (ERBB2): 0.025 µM
IC50 (TNK2): 0.847 µM
Ki (BMX [6]): 0.042 µM
